Active and inactive are the calls of the source.
Legend:
Caspase-3 = target: T1, Caspase-3 (Homo sapiens, UniProt P42574); type: functional;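 note: Dose-response selectivity test against caspase-3 for candidate inhibitors of sentrin-specific proteases (SENPs)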
T1 sequence (P42574 whole entry): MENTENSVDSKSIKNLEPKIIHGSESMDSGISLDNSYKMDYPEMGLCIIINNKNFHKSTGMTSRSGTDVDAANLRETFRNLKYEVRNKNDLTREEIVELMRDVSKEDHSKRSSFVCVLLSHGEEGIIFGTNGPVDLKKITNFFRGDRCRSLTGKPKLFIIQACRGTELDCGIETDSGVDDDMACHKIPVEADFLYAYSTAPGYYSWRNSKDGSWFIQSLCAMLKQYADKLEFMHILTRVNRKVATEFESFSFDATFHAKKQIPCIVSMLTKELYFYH

[1] = growth suppression of PTEN-null colon cells, dose response, cell-based, HCT116 PTEN knockout (AID 1047); type: functional;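 note: HCT116 colon tumor cells with PTEN knocked out; cells exposed to compound for 60 hours before readout; potency for loss of cell viability measured by luminescence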
[2] = target: T2, Sentrin-specific protease 7 (Homo sapiens, UniProt Q9BQF6); type: functional;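 note: Luminescence-based dose-response confirmation of ultra-high-throughput screening hits, measuring inhibition of SENP7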
T2 sequence (Q9BQF6 whole entry): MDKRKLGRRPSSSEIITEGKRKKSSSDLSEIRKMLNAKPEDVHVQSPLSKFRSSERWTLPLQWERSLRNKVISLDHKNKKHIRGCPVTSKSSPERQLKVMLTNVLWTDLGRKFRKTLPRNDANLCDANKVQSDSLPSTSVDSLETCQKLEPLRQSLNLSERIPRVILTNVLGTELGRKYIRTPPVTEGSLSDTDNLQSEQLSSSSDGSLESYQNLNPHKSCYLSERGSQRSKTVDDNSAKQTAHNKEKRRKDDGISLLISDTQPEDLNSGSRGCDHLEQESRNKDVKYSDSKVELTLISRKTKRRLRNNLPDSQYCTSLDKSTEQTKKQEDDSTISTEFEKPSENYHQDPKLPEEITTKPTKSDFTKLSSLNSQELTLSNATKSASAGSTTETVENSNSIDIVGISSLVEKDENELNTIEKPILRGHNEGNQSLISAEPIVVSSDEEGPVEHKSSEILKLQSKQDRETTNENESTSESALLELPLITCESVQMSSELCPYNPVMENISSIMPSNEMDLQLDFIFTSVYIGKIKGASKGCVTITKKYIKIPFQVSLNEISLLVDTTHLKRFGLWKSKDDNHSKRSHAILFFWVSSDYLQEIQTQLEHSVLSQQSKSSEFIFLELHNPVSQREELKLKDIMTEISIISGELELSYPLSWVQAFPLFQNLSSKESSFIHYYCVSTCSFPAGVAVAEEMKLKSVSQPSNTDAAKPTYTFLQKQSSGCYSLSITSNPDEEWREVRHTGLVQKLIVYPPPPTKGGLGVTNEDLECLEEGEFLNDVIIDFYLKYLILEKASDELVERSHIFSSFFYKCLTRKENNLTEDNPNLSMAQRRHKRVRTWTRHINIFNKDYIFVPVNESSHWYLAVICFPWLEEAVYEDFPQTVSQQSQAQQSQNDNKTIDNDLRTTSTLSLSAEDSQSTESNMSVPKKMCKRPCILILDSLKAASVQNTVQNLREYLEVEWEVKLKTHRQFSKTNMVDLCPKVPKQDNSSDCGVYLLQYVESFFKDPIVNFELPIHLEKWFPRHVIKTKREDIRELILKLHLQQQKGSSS

INS1 = assay: beta cell apoptosis inhibitors, cytokine rescue, dose response, luminescence, retest (AID 449756); type: functional, cell-based; details: Rattus norvegicus;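 note: cell death triggered by IL-1 beta plus TNF-alpha plus IFN-gamma mixture; protective hits raise ATP signal compared with cytokine alone wells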
[3] = THP-1 cell cytotoxicity, dose response, cytotoxicity control for non-replicating M. tuberculosis project (AID 489025); type: functional
[4] = target: T3, Sentrin-specific protease 6 (Homo sapiens, UniProt Q9GZR1); type: functional;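 note: Luminescence-based dose-response confirmatory assay of SENP6 inhibition, following up an ultra-high-throughput screen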
T3 sequence (Q9GZR1 whole entry): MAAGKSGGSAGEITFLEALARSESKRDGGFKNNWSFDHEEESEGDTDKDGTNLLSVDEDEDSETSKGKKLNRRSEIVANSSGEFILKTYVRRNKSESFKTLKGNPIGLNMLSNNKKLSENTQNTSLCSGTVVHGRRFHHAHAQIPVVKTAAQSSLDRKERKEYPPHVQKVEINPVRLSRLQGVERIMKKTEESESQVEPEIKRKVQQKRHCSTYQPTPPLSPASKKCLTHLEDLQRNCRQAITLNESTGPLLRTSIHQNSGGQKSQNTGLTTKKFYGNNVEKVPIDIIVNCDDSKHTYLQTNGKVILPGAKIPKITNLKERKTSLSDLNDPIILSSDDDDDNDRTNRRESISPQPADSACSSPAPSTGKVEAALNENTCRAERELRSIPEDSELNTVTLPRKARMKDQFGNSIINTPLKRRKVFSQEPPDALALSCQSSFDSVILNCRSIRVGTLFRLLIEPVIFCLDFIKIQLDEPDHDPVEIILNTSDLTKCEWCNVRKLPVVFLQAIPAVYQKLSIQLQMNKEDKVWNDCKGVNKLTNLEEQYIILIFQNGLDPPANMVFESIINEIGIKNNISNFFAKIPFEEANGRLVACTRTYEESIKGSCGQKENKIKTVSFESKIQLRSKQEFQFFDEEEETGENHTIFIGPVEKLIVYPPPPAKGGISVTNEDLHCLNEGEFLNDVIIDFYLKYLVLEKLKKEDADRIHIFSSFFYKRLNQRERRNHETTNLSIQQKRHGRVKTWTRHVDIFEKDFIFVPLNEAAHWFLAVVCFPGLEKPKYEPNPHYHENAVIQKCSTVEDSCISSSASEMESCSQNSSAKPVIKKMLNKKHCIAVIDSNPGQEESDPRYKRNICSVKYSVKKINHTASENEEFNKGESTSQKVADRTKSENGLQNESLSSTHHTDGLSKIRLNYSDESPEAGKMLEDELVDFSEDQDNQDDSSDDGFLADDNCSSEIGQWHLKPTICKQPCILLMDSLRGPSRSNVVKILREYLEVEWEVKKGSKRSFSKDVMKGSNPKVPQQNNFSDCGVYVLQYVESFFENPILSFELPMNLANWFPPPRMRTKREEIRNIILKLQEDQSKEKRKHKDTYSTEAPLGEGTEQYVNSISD

[5] = Vero E6 cell cytotoxicity, dose response, cytotoxicity control for non-replicating M. tuberculosis project, secondary assay (AID 492998); type: functional, VeroE6; details: Vero C1008
[6] = target: T4, Sentrin-specific protease 8 (Homo sapiens, UniProt Q96LD8); type: functional;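 note: luminescence read-out of SENP8 inhibition, dose-response confirmation following an ultra-high-throughput screen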
T4 sequence (Q96LD8 whole entry): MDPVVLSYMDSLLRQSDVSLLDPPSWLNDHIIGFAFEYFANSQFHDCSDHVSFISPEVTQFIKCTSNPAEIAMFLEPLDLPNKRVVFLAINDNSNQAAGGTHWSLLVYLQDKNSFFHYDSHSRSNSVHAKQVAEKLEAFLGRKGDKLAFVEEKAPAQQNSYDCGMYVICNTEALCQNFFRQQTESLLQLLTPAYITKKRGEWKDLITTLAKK

[7] = growth suppression of beta-catenin-knockout colon cells, dose response, cell-based, HCT116, human colon tumor (AID 1045); type: functional;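 note: HCT116 colon tumor cells with beta catenin knocked out; cells exposed to compound for 60 hours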
Vero [8] = assay: cells; type: functional, cell-based; details: Chlorocebus sabaeus
[9] = Luminescence Cell-Based Dose Retest to Confirm Inhibitors of Cancer Stem Cells. [Related pubchem assays (depositor defined):AID2717, AID2721]; type: functional; details: Homo sapiens
Vero [10] = assay: cells; type: functional; details: Chlorocebus sabaeus
[11] = insulin promoter down-regulators in MIN6 cells, imaging, high-content screening, mouse beta cells (AID 1628); type: functional
[12] = cytotoxicity in MIN6 insulinoma cells, dose response, cytotoxicity control, cell-based, mouse insulinoma (AID 2122); type: functional;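 note: confirmatory high-throughput counterscreen run to flag cytotoxic compounds; mouse MIN-6 beta cells carrying an insulin promoter eGFP reporter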
Protein skinhead-1 = target: T5, Protein skinhead-1 (Caenorhabditis elegans, UniProt P34707); type: functional
T5 sequence (P34707 whole entry): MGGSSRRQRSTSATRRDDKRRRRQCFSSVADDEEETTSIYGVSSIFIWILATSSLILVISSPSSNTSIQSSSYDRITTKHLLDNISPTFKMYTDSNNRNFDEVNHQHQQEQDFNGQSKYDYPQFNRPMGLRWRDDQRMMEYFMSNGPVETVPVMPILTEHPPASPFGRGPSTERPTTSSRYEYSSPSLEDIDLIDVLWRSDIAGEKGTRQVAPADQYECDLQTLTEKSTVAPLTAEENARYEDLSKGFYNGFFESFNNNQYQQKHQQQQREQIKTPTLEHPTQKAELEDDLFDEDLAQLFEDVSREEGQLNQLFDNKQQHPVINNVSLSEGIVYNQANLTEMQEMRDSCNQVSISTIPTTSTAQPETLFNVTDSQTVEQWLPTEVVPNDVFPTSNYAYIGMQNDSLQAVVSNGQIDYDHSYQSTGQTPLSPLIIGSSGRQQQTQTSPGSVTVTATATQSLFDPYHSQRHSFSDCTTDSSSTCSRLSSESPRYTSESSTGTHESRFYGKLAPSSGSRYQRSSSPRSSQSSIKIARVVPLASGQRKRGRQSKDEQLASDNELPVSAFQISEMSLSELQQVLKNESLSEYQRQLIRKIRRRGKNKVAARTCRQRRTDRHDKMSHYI

Estrogen receptor beta [13] = target: T6, Estrogen receptor beta (Homo sapiens, UniProt Q92731); assay: ERβ–SRC-3 coactivator interaction inhibitors, confirmation, orthogonal assay, biochemical, ELISA, streptavidin-HRP readout (AID 1060)
T6 sequence (Q92731 whole entry): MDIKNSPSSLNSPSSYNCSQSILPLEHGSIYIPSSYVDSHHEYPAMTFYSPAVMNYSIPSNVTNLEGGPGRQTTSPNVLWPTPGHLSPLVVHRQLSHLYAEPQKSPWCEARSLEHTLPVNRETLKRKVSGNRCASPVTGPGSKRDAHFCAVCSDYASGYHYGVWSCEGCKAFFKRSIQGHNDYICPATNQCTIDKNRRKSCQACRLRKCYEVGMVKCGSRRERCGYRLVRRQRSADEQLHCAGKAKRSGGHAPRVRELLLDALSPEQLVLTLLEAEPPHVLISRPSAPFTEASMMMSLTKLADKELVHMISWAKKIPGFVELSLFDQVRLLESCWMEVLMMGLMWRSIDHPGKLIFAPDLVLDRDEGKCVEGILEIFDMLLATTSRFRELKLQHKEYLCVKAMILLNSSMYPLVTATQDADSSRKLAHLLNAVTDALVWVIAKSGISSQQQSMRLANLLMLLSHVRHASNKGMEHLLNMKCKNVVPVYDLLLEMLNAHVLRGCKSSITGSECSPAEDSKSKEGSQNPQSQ

Estrogen receptor beta [14] = target: T6, Estrogen receptor beta
[15] = inhibitors of intracellular T. cruzi replication, confirmation, NIH3T3 host cells, beta-gal luminescence (AID 2044); type: functional, cell-based;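 note: intracellular parasites grown in NIH/3T3 mouse fibroblasts as host cells; luminescent beta-galactosidase reporter signal from transgenic T. cruzi replicating inside host cells; inhibitors lower the luminescence signal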
Prothrombin = Prothrombin (Homo sapiens, UniProt P00734); assay: Thrombin 1536 HTS Dose Response Confirmation. [Related pubchem assays: 1046 (Thrombin 1536 HTS; hits were confirmed in this assay)]; type: functional
Cytochrome P450 2C19 = Cytochrome P450 2C19 (Homo sapiens, UniProt P33261); assay: Cytochrome panel assay with activity outcomes. Panel member name: p450-cyp2c19 Compounds with AC50 equal or less than 10 uM are considered active; type: functional; details: read-out: AC50
Chain of Cytochrome P450 2C19 (P33261 whole entry): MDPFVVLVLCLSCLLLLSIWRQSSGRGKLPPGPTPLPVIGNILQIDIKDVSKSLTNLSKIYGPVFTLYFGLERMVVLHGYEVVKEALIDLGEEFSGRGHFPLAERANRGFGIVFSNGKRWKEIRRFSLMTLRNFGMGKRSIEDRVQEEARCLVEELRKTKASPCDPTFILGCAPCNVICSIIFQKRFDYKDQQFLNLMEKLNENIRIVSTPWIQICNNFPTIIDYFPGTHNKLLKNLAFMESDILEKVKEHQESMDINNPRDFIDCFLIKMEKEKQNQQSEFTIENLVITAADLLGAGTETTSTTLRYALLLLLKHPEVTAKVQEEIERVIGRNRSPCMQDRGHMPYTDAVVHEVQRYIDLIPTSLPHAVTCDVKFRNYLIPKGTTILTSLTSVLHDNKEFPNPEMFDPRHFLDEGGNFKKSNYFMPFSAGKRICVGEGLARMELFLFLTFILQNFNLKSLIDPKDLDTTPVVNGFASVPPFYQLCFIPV

Cytochrome P450 2C9 = Cytochrome P450 2C9 (Homo sapiens, UniProt P11712)
Chain of Cytochrome P450 2C9 (P11712 whole entry): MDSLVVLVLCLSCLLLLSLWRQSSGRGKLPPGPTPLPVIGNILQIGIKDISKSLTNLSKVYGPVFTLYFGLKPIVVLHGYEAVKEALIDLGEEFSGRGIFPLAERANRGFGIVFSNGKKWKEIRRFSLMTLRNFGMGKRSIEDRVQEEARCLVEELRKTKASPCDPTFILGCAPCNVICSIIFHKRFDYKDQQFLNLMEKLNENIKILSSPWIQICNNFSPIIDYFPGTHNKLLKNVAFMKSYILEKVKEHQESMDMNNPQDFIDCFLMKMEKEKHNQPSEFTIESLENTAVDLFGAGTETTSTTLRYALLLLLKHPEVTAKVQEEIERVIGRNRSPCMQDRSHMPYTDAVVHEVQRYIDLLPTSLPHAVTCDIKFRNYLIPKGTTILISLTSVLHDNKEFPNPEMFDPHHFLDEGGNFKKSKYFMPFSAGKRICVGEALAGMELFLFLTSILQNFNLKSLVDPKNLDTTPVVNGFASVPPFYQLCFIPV

Cytochrome P450 3A4 = Cytochrome P450 3A4 (Homo sapiens, UniProt P08684);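 note: CYP3A4 tested as one member of a cytochrome P450 panel screen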
Chain of Cytochrome P450 3A4 (P08684 whole entry): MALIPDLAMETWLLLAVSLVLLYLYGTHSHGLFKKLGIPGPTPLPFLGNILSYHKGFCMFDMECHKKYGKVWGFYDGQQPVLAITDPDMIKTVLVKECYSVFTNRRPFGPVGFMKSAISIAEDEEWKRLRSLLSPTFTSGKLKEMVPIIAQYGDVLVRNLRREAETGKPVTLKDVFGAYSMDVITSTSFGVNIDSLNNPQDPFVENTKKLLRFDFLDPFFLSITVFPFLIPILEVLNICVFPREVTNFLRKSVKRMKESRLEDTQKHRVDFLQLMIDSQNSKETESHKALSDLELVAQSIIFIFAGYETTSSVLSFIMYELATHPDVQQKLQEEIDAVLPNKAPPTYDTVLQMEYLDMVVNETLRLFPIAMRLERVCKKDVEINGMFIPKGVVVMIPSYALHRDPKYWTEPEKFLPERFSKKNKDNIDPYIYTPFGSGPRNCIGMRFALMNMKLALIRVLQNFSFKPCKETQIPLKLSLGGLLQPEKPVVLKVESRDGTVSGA

[16] = microbe, parasite or virus in culture; type: functional; details: Mycobacterium tuberculosis
[17] = cytotoxicity toward NIH3T3 fibroblasts, dose response, counter-screen, cell-based, ATP luminescence, mouse fibroblasts (AID 2010); type: functional;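 note: cells exposed to compound for about 90 hours before reading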
Cytochrome P450 1A2 = target: T7, Cytochrome P450 1A2 (Homo sapiens, UniProt P05177);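 note: PubChem cytochrome P450 panel assay, CYP1A2 panel member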
T7 sequence (P05177 whole entry): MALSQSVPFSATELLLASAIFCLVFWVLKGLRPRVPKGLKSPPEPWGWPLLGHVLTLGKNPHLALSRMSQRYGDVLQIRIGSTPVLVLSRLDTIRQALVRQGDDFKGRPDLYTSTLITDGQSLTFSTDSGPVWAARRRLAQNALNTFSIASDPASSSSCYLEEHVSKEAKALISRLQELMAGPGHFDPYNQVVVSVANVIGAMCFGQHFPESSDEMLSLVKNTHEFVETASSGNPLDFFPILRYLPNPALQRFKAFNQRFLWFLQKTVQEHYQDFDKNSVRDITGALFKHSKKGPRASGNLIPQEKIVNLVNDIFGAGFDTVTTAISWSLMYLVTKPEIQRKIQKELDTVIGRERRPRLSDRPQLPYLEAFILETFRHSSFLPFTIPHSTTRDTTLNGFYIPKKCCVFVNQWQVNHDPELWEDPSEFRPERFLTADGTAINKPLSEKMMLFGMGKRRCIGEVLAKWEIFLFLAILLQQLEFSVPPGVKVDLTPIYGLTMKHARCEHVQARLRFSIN

[18] = target: Glucose-6-phosphate 1-dehydrogenase (Homo sapiens, UniProt P11413); assay: human G6PD enzyme inhibitors, dose response, selectivity assay for P. falciparum G6PD inhibitor project, biochemical, fluorescence (AID 504792); type: functional
Chain of Glucose-6-phosphate 1-dehydrogenase (P11413 whole entry): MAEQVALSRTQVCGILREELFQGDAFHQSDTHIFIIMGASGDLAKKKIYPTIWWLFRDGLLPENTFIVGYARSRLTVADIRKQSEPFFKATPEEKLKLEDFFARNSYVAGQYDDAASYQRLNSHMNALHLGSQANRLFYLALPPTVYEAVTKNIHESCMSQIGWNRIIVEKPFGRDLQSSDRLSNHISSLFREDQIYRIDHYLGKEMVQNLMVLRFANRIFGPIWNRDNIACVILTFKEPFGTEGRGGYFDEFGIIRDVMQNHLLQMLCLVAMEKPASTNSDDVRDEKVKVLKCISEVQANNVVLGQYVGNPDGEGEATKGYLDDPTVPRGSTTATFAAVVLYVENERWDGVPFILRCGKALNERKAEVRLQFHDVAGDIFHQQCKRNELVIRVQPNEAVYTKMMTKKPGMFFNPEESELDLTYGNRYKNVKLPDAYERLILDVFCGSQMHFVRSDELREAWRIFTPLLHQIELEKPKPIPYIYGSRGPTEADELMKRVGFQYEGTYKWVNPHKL

[19] = target: Induced myeloid leukemia cell differentiation protein Mcl-1 (Homo sapiens, UniProt Q07820); type: functional
Chain of Induced myeloid leukemia cell differentiation protein Mcl-1 (Q07820 whole entry): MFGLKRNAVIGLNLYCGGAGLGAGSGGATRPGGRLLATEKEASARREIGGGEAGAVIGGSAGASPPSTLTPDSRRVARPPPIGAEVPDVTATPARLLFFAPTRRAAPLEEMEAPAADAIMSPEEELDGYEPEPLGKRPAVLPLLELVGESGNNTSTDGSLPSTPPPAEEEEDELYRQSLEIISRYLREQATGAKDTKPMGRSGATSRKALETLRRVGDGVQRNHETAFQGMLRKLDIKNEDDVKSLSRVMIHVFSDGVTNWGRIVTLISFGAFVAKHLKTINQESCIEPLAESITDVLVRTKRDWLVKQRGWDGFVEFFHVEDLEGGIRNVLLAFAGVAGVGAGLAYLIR

## O=[N+]([O-])c1ccc(-c2nc3cc([N+](=O)[O-])ccc3[nH]2)cc1
Caspase-3
  IC50: 27.2 µM (active)
[1]
  EC50: 12 µM (active)
[2]
  IC50: 17 µM (active)
INS1
  AC50: 3.9 µM (active)
[3]
  CC50: 29.4 µM (active)
[4]
  IC50: 27.4 µM (active)
[5]
  CC50: 19.9 µM (active)
[6]
  IC50: 24.8 µM (active)
[7]
  EC50: 13.2 µM (active)

## COc1cc(/C=C/C(=O)c2ccc(NS(=O)(=O)c3ccc(C)cc3)cc2)cc(OC)c1O
Vero [8]
  IC50: > 25 µM (active)
[9]
  AC50: 2.27 µM (active)
Vero [10]
  CC50: 14.5 µM (active)

## Cc1cc(C)nc(N=C(N)Nc2ccc(OCc3ccccc3)cc2)n1
[11]
  IC50: 988 nM (active)
[12]
  IC50: 1.22 µM (active)

## Cc1ccc(OCCCCn2cnc3ccccc32)c(C)c1
[11]
  IC50: 2290 nM (active)
[1]
  EC50: 70.8 µM (active)
Protein skinhead-1
  IC50: > 100 µM (inactive)
[12]
  IC50: 1.76 µM (active)
[7]
  EC50: 41.2 µM (active)

## N=c1c(C(=O)NCc2ccco2)cc2c(=O)n3ccccc3nc2n1CCc1ccccc1
[11]
  IC50: 861 nM (active)
Estrogen receptor beta [13]
  IC50: > 50 µM (not active)
[12]
  IC50: 12.4 µM (inactive)
Estrogen receptor beta [14]
  IC50: > 50 µM (not active)

## COc1ccc(-c2c[n+]3c4n2CCCCC4=C(c2ccccc2)C3)cc1
[11]
  IC50: > 16000 nM (inactive)
[15]
  EC50: 169 nM (active)
Prothrombin
  IC50: > 50 µM (not active)
Cytochrome P450 2C19
  AC50: 3.55 µM (inconclusive)
Cytochrome P450 2C9
  AC50: 31.6 nM (inconclusive)
[12]
  IC50: 2.76 µM (active)
Cytochrome P450 3A4
  AC50: 3.16 µM (inconclusive)
[16]
  CC50: 28.1 µM (active)
[17]
  EC50: > 60 µM (not active)
Cytochrome P450 1A2
  AC50: 28.2 µM (inconclusive)

## Cc1ccccc1OCC(=O)N/N=C/c1ccc(Sc2nc3ccccc3s2)o1
[18]
  IC50: > 80 µM (inactive)

## Cc1ccc(/C=C2\C(=O)NC(=S)N(c3ccccc3F)C2=O)s1
[19]
  IC50: 4.91 µM (active)
[18]
  IC50: > 80 µM (inactive)
